This passage reports AC50, EC50 and CC50 results from ChEMBL document CHEMBL1201862, “PubChem BioAssay data set” (2004).

Assay [1] in a line: Luminescence Cell-Based Dose Retest to Confirm Inhibitors of Cancer Stem Cells. [Related pubchem assays (depositor defined):AID2717, AID2721]. It counts as functional. The settings on record: Homo sapiens.
Assay [2] can be described thus: luciferase reporter signal suppression in cells – H4 neuroglioma cells, luminescence, dose response (AID 1990). It counts as functional, cell-based. A general note: In a reporter assay the amount or activity of a reporter protein is the signal.
A short description of assay [3]: Luminescence Cell-Based Dose Response HTS to Identify Inhibitors of 5'UTR Stem-Loop Driven Prion Protein mRNA Translation in H4 Neuroglioblastoma Cells. [Related pubchem assays: 1827 (Project Summary), 1813 (Primary HTS)]. It counts as functional.
The nature of assay [4]: alpha-synuclein stem-loop luciferase translation blockers – H4 neuroglioma cells, luminescence, confirmation (AID 1988). It counts as functional, cell-based.
In another assay the target is Cytochrome P450 2C9 (Homo sapiens, UniProt P11712).
Cytochrome P450 2C9, sequence (P11712 whole entry): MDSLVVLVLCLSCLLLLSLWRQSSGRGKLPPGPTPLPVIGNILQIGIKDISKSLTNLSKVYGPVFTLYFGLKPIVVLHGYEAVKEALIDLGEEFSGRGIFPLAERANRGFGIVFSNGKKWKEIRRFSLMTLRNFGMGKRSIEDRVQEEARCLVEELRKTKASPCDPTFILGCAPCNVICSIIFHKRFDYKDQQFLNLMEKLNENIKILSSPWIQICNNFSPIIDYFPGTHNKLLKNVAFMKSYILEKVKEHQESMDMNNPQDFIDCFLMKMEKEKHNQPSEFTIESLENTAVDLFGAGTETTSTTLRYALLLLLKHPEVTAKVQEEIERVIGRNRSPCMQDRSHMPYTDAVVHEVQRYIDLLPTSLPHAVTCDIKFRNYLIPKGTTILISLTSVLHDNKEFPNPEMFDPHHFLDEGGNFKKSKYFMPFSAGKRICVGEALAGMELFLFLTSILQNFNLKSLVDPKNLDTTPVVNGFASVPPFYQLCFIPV
A short description of assay [5]: viability of uninfected HEp-2 cells – cell-based, HTS, cytotoxicity control for RSV inhibitor project, dose response (AID 2410). It counts as functional. The settings on record: human respiratory syncytial virus.
A short description of assay [6]: Luminescence Cell-Based Dose Confirmation HTS to Identify Inhibitors of Platelet Dense Granule Release. [Related pubchem assays: 1663 (Primary HTS), 1678 (Summary of Project)]. It counts as functional.
In assay [7] the target is Luciferin 4-monooxygenase (Photinus pyralis, UniProt P08659). As to the kind of experiment: inhibition of purified Photinus pyralis luciferase – biochemical, luminescence, dose response (AID 1891).
Luciferin 4-monooxygenase, sequence (P08659 whole entry): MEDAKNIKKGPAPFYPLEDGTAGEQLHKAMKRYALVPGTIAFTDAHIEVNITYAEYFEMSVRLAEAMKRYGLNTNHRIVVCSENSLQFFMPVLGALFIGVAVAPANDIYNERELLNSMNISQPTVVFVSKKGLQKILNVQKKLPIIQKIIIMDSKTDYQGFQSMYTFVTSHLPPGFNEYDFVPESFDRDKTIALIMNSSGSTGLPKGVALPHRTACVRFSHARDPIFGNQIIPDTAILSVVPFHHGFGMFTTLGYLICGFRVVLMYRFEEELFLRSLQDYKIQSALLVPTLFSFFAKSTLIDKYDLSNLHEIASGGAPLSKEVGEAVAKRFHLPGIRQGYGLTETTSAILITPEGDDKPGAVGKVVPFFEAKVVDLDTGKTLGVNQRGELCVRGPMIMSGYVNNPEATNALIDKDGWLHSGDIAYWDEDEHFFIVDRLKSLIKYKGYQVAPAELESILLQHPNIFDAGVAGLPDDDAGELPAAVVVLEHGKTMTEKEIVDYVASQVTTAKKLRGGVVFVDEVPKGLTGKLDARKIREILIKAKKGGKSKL
A further assay concerns the target T1, Streptokinase A (Streptococcus pyogenes serotype M1, UniProt P10520).
T1 sequence (P10520 whole entry): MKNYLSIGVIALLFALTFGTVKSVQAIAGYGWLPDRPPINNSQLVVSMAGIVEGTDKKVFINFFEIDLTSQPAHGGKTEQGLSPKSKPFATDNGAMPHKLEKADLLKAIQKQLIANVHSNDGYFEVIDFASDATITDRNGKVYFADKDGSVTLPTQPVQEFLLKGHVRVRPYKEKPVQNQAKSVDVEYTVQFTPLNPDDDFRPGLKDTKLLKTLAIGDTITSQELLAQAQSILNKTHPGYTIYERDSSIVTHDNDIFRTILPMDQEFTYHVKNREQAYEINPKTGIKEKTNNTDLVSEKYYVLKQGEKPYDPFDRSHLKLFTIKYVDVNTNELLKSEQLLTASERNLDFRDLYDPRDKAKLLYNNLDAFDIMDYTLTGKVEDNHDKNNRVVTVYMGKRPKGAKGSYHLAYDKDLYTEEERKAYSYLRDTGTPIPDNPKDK
Put plainly: viability-normalized secreted streptokinase activity reduction – plasminogen activation absorbance, OD405, dose response (AID 1914).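 Note: secreted streptokinase activity via plasminogen activation per viability signal from cell pellet.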 It counts as functional, Streptococcus pyogenes M1 GAS.

In assay [8] the test system is Streptococcus sp. 'group A'. Put plainly: Streptococcus pyogenes SK(-)GAS viability under kanamycin – luminescence, BacTiterGlo, confirmation, counter-screen for streptokinase expression inhibitor project, dose response (AID 1900). It counts as functional, organism-based. (A counterscreen serves to expose hits that act by an unwanted route or on another target.)
For the next assay, the system named is Streptococcus. As to the kind of experiment: GAS UMAA2166 growth inhibition – luminescence, BacTiterGlo, counter-screen for streptokinase expression inhibitor project, dose response (AID 1915).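 Note: potency for reduction of bacterial viability or growth.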 It counts as functional, organism-based.
For the next assay, the target named is Cytochrome P450 3A4 (Homo sapiens, UniProt P08684).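 Note: CYP3A4 tested as one member of a cytochrome P450 panel screen.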
Cytochrome P450 3A4, sequence (P08684 whole entry): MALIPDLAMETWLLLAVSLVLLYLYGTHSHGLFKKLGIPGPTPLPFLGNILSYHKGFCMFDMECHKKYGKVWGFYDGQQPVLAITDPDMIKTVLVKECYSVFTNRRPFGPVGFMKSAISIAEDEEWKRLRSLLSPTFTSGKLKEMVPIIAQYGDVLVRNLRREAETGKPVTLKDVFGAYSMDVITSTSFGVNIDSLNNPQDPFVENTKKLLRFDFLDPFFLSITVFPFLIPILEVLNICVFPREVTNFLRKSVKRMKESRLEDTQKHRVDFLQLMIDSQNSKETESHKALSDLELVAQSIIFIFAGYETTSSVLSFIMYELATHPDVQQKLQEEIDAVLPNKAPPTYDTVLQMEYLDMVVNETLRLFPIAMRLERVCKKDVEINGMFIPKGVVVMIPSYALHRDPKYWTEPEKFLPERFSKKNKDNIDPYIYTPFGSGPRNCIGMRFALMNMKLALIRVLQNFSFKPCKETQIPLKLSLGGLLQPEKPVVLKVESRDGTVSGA
The nature of assay [9]: NIH3T3 cell viability loss – ATP luminescence, mouse fibroblasts, counter-screen, dose response (AID 2010).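 Note: cells exposed to compound for about 90 hours before reading.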 It counts as functional, cell-based.
Assay [10] is described as follows: Trypanosoma cruzi growth suppression in host cells – NIH3T3 host cells, beta-gal luminescence, confirmation (AID 2044).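 Note: intracellular parasites grown in NIH/3T3 mouse fibroblasts as host cells; luminescent beta-galactosidase reporter signal from transgenic T. cruzi replicating inside host cells; inhibitors lower the luminescence signal.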 It counts as functional, cell-based.

The structures appear in SMILES notation. The source made the active and inactive calls. Cut-off read from the data, not from the text of the source, for most assays here: actives have a measured EC50 and inactives only a lower limit.

What is called AC50 is the concentration giving half of the maximal activity seen. Turning to `COc1ccc(C(=O)C2CCCN(Cc3cc(C)c(O)c(C)c3)C2)c(OC)c1` (stereo not drawn), the AC50 in [1] was 0.502 µM (active). As a reminder, the EC50 is the concentration giving half of the maximal effect. As to `CCOc1ccc(S(=O)(=O)N2CCC(C(=O)NCc3cccnc3)CC2)cc1Cl`, the EC50 in assay [2] was 17.7 µM (active); in assay [3], > 120 µM (not active); in assay [4], > 120 µM (not active). Take `CCOC(=O)c1ccc(NC2c3ccccc3C(=O)N2c2cccnc2)cc1` (stereo not drawn): the half-maximal effective concentration (EC50) in [2] was 20 µM (active); in assay [3] it was > 120 µM (not active); in [4], 9.83 µM (active).

As for `CCC/C(=C1/c2ccccc2C(=O)N1c1ccccc1)c1ccc2c(c1)OCCO2`, the concentration at half-maximal activity (AC50) in assay [1] is 3.85 µM (active).

Consider `CCOC(=O)C(=O)NNc1ccc(Cl)cc1`, for which the concentration at half-maximal activity (AC50) in assay [1] is 0.79 µM (active). In the case of `CCOC(=O)Cn1c(=O)oc2cc(S(=O)(=O)NCCc3ccc(OCC)c(OCC)c3)ccc21`, the AC50 at Cytochrome P450 2C9 is 0.00562 µM (inconclusive). For orientation: CC50 means the concentration that lowers cell viability or growth by half. `CCOC(=O)C1CCN(C(=O)c2oc3ccc(S(=O)(=O)N4CCCCCC4)cc3c2C)CC1`: the CC50 in [5] is 17.7 µM (active). As for `Clc1ccccc1Cn1c(/C=C/c2ccco2)nc2ccccc21`, the half-maximal activity concentration (AC50) in assay [1] was 2.86 µM (active). Consider `COc1ccc(OCCCC(=O)OC(C)C(=O)Nc2ccc(NC(C)=O)cc2)cc1` (stereo not drawn), for which the EC50 in [6] and in [7] was > 112 µM (not active) each time. `COCCn1c(=O)c(C)nc2cnc(Nc3cccc(OC)c3)nc21`: at Cytochrome P450 2C9, the half-maximal activity concentration (AC50) is 39.8 µM (inconclusive).

`CN1/C(=C\C(=O)Nc2ccc(Cl)cc2)C(C)(C)c2ccccc21`: the EC50 on Streptokinase A was > 150 µM (not active); in assay [8] it was 9.32 µM (active); with Streptococcus, 11.5 µM (active). `Brc1cccc(OCCN2CCc3ccccc3C2)c1`: the AC50 in assay [1] is 24.9 µM (active). `Cn1cc(S(=O)(=O)N2CCCC2)cc1C(=O)NCCc1ccccc1`: the EC50 in assay [6] and in assay [7] was > 112 µM (not active) each time. Take `COc1ccc(C(=O)OCCOc2cccc(Cl)c2)cc1S(=O)(=O)N1CCOCC1`: the EC50 in [6] and in [7] was > 112 µM (not active) in each case. With `CN1CCN(C(=O)CCN2C(=O)/C(=C/c3cccc(Br)c3)SC2=S)CC1`, the CC50 in assay [5] is 18.8 µM (active). As for `COc1ccc(C(=O)NCCOc2cccc(OC)c2)cc1`, the EC50 in [6] and in assay [7] was > 112 µM (not active) each time. As to `COc1cc(C)ccc1OCCCOc1ccccc1Cl`, the half-maximal activity concentration (AC50) on Cytochrome P450 3A4 is 17.8 µM (inconclusive); on Cytochrome P450 2C9, 12.6 µM (inconclusive). Take `Cc1nc2ccccc2c(=O)n1NC(=O)C1CCC(C(C)(C)C)CC1` (stereo not drawn): the EC50 in [2], in assay [3] and in assay [4] was > 120 µM (not active) each time. For `COc1ccc2cc1Oc1ccc(cc1)CC1c3c(cc(OC)c4c3Oc3cc5c(cc3O4)CCNC5C2)CCN1C` (stereo not drawn), the EC50 in assay [2] is > 120 µM (not active); in [9] it was 6.68 µM (active); in assay [3], 8.28 µM (active); in assay [4], 8.03 µM (active); in assay [10] it was 0.193 µM (active). `Cc1ccc(C)c(CN2CCCN(Cc3cc(C)ccc3C)S2(=O)=O)c1`: the concentration for a half-maximal effect (EC50) was 19.7 µM (active) at Streptokinase A, 19.8 µM (active) in assay [8] and > 150 µM (not active) with Streptococcus. `Cc1noc(C)c1CSc1nc2ccccc2nc1NS(=O)(=O)c1ccc(Cl)cc1`: in assay [1], the concentration at half-maximal activity (AC50) is 3.64 µM (active). The half-maximal effective concentration (EC50) at Streptokinase A is 5.51 µM (active); in [8], 6.49 µM (active); in the assay on Streptococcus, 13.7 µM (active). On to `CCC(C)Nc1nc(N)c([N+](=O)[O-])c(Nc2ccccc2OC)n1` (stereo not drawn), for which the concentration for a half-maximal effect (EC50) is 13.5 µM (active) in assay [2], > 120 µM (not active) in assay [3] and > 120 µM (not active) in assay [4]. In the case of `O=C(N/N=C/c1ccc[nH]1)c1sc2ccccc2c1Cl`, the EC50 in [9] is > 30 µM (not active); in [10] it was 2.3 µM (active). Also, the half-maximal activity concentration (AC50) in [1] was 1.94 µM (active). Turning to `CC1=C(C(=O)OC2CCCCC2)C(c2ccc(C)o2)C2=C(O)CC(C)(C)CC2=N1` (stereo not drawn), the half-maximal activity concentration (AC50) in assay [1] was 1.38 µM (active). On to `Cc1cc(=O)n2nc(N3CCCC(C(=O)NCc4ccccc4)C3)sc2n1` (stereo not drawn), for which the EC50 in [6] and in [7] was > 112 µM (not active) each time. For `CCC(C)(C)c1ccc(Oc2cccc(C(=O)O)c2)cc1`, the AC50 on Cytochrome P450 2C9 was 5.01 µM (inconclusive). In the case of `O=C(COc1cccc(OC(F)F)c1)Nc1ccc(SC(F)F)cc1`, the EC50 in assay [6] and in assay [7] was > 112 µM (not active) each time. Turning to `Cc1ccc(S(=O)(=O)NCc2ccc(C(=O)NC3CC3)cc2)cc1`, the EC50 in assay [6] is 28.1 µM (active); in [7], > 112 µM (not active).

As for `CCc1ccc(-c2cc(C(=O)N/N=C/c3c[nH]c4ccccc34)[nH]n2)cc1`, the concentration at half-maximal activity (AC50) in assay [1] is 2.97 µM (active). For the same compound, the values for the EC50 (on Streptokinase A; in assay [8]; in the assay on Streptococcus) were > 150 µM (not active), 7.37 µM (active) and 6.73 µM (active), respectively. Regarding `COc1ccc(OC)c(-n2c(SCC(N)=O)nnc2-c2c[nH]c3ccccc23)c1`, the EC50 in assay [6] and in assay [7] was > 112 µM (not active) each time. For the compound `O=C(CN1CCN(c2cccc(C(F)(F)F)c2)CC1)Nc1cccc(C(F)(F)F)c1`, in assay [5], the 50% cytotoxic concentration (CC50) was > 50 µM (active).

Take `O=C(c1cc(-c2ccc(Br)cc2)nc2ccccc12)N1CCN(c2ccccc2O)CC1`: the figures for the EC50 (on Streptokinase A; in assay [8]; with Streptococcus) were 29.2 µM (active), 7.53 µM (active) and 25.4 µM (inconclusive), respectively. Regarding `COC(=O)C(NS(=O)(=O)c1ccc(NC(C)=O)cc1)C(C)C` (stereo not drawn), the AC50 at Cytochrome P450 2C9 was 1.58 µM (inconclusive).

Regarding `O=c1cc(O)cc(/C=C\c2ccc(O)c(O)c2)o1`, the AC50 was 3.16 µM (inconclusive) at Cytochrome P450 3A4 and 25.1 µM (inconclusive) on Cytochrome P450 2C9. Regarding `CC(/C=N/NC(=O)c1nnn(-c2nonc2N)c1C(C)C)=C\c1ccccc1`, the 50% cytotoxic concentration (CC50) in assay [5] is 39.5 µM (active). Regarding `COc1cc2c(cc1OC)C(C(=O)Nc1ccc3c(c1)OCCO3)C(c1cccnc1)N(C)C2=O` (stereo not drawn), on Cytochrome P450 2C9, the AC50 is 11.2 µM (inconclusive). For `CCCc1cc(C(=O)N2CCCC(N3CCN(c4ccccc4F)CC3)C2)n(C)n1` (stereo not drawn), the EC50 was 21.6 µM (active) in [6] and > 112 µM (not active) in [7]. On to `CC1(C(=O)OCC(=O)Nc2nc(-c3ccc(F)c(F)c3)cs2)CC1(Cl)Cl` (stereo not drawn), for which the concentration giving a half-maximal response (EC50) on Streptokinase A is 7.2 µM (active); in assay [8], 8.61 µM (active); with Streptococcus, 11.8 µM (active). Regarding `COc1ccc(/C=N\NC(=O)c2ccc(F)cc2)cc1COc1ccccc1C(N)=O`, the EC50 in assay [6] and in assay [7] was > 112 µM (not active) each time.

Take `O=C(c1cc2ccccc2o1)N(Cc1nnc(-c2ccccc2Cl)o1)C1CC1`: in assay [5], the half-maximal cytotoxic concentration (CC50) was 25.9 µM (active). In the case of `CCc1ccc(C(=O)Nc2cccc(-c3nn[nH]n3)c2)s1`, the EC50 was > 112 µM (not active) in [6] and 3.49 µM (active) in assay [7].

Consider `COC(=O)c1[nH]c2cc(OC)ccc2c1NC(=O)CN1CCOCC1`, for which the EC50 in assay [6] and in assay [7] was > 112 µM (not active) each time. With `O=[N+]([O-])c1ccc(S(=O)(=O)Nc2cccc(-c3ccc(N4CCCC4)nn3)c2)cc1`, the CC50 in assay [5] is 24.5 µM (active). Turning to `O=C(Nc1ccccc1N1CCCC1)C1CCN(S(=O)(=O)c2ccccc2C(F)(F)F)CC1`, the CC50 in assay [5] is > 50 µM (active). Still for that read-out and setting: to `C/C(=N\NC(=O)C1CC1)c1ccc(C(C)(C)C)cc1` belongs 34.3 µM (active).

Regarding `COc1ccc(NS(=O)(=O)c2cc(NC(=O)c3ccc(O)nc3)ccc2N2CCCC2)cc1`, the AC50 in assay [1] was 0.952 µM (active).
